{
  "source": "patent US20230357095A1",
  "about": "“HYDROGEN NANOBUBBLES INFUSED WATER FOR […] IRRIGATION” (L'Air Liquide, Societe Anonyme pour l'Etude et …, priority 2020, published 2023)",
  "origin": "cited, not measured here",
  "details": "P=1 bar",
  "note": "Read-outs that look alike come from different tables or passages of the source.",
  "data": [
    {"compound": "[HH]", "note": "[hydrogen]", "values": [
      {"measurement": "Saturation concentration of hydrogen in pure water", "setting": "T=273.1 K", "value": 1.95, "unit": "mg/L"},
      {"measurement": "Saturation concentration of hydrogen in pure water", "setting": "T=298.1 K", "value": 1.60, "unit": "mg/L"}
    ]}
  ]
}
